Data from patent US20140066381A1, “NOVEL PEPTIDES THAT ARE MODULATORS OF THE PROTEIN TRF2 AND COMPOSITIONS CONTAINING SAME” (ISP INVESTMENTS INC., priority 2011, published 2014).
Ends that are not written are not given here.

Assays:
Assay type in all cases: cell-based
Human skin biopsies = Human skin biopsies rendered senescent in vitro using methylglyoxal, H&E morphology
Method: Human skin biopsies are rendered artificially senescent in vitro, by means of a treatment with methylglyoxal (MGO). For this, des punch de 6-mm human skin punch biopsies are incubated at the air-liquid interface in a specific culture medium. They are then treated with 5 mM or 10 mM of MGO (Sigma) deposited at the surface of the biopsies and in the culture medium. The biopsies are then treated with: • condition 1: 20 μL of PBS 1×, or • condition 2: 20 μL of peptide SEQ ID NO: 4 at 1%, or • condition 3: 20 μL of peptide SEQ ID NO: 4 at 3%.
The biopsies are fixed and embedded in paraffin, and are then cut into 4-μm sections using a microtome. Hematoxyline/eosine (H&E) immunolabeling is performed on the sections previously cut and their morphology and structure are studied by microscopic observation (under a microscope Nikon Eclipse E600, objective 40×).

vimentin = assay: Vimentin immunofluorescence detection in fibroblasts aged by replicative senescence; conditions: human fibroblasts, daily application of peptide at 1% or 3%, more than 17 passages, immunofluorescence at passages 6 and 17
Method: Human fibroblasts are placed in culture in a specific medium and kept in culture for a long treatment (for more than 17 passages), by means of a daily application of the peptide SEQ ID NO: 2 at a concentration of 1% or of 3%. A vimentin immunofluorescence detection experiment is performed on the cells in culture passages 6 and 17. The cells are then washed with PBS, fixed with 3.7% formaldehyde for 10 minutes, permeabilized by means of 0.2% Triton X-100 for 10 minutes (Fisher Chemical) and incubated with 1% BSA (Euromedex) for 15 minutes. An anti-vimentin antibody (Tebu Santa Cruz) is then added and incubated at a dilution of 1/200 for 2 h at room temperature. After washing with PBS, a Donkey anti-mouse IgG antibody, conjugated with a marker ALEXA FLUOR® 488, is added at a dilution of 1/1000 and incubated for one hour at room temperature. Finally, the sections are mounted with Fluoromount G (Electron Microscopy Science) and examined under a microscope (Nikon Eclipse 80i, enlargement 40×).

TRF2 protein = TRF2 protein expression by Western Blot in human fibroblasts with or without TRF2 siRNA; conditions: 72 h
Method: To quantify the efficacy of a peptide compound according to the invention, on the overexpression of TRF2 in a human fibroblast population, the gene coding for TRF2 was “turned off” by using the siRNA technique.
Fibroblast cells are placed in culture in a 6-well plate until 60% confluence. The culture medium is renewed by adding the peptide SEQ ID NO: 2 at 1% under the conditions described below. Then, 100 μL of a mixture previously produced containing, in the end, 10 nM of TRF2 siRNA and the transfection agent are gently added, one drop at a time, and one well at a time. The cell culture plate is incubated at 37° C. and 5% in CO2 for 72 h. The culture medium is renewed every 2 days. Four conditions were established: • condition 1: control without siRNA and without active agent • condition 2: cells transfected with the siRNA, without active agent • condition 3: cells not transfected but treated with the active agent • condition 4: cells transfected with the siRNA and treated with the active agent
The quantification of the TRF2 expression is observed by the classic immunotransfer technique (Western Blot) performed with an anti-TRF2 antibody and according to a classic protocol. […]

Substance	damage inflicted on the structures of the biopsies vs control conditions (Human skin biopsies; 6-mm human skin punch biopsies, 5 mM or 10 mM MGO, 20 μL of peptide at 1% or 3%, H&E)	protective effect of the peptide, 3% dose vs 1% dose (Human skin biopsies; human skin biopsies treated with MGO, 20 μL of peptide at 1% vs 3%)	vimentin expression in aged fibroblasts, treated vs not treated (vimentin)	increase in the expression of the TRF2 protein with respect to the control (TRF2 protein; condition 3 vs condition 1: cells not transfected, peptide at 1%, Western Blot) [%]	reduction in TRF2 expression with respect to the control condition (TRF2 protein; condition 4 vs condition 1: cells transfected with 10 nM TRF2 siRNA and treated with peptide at 1%)
Ala-Met-Lys-Lys-Gln-Lys-Trp-NH2 (AMKKQKW-NH2) [SEQ ID NO: 4]	much less significant	dose-dependent	–	–	–
Lys-Lys-Gln-Lys-Trp-NH2 (KKQKW-NH2) [SEQ ID NO: 2]	–	–	express less vimentin	17	no more than 18%
